Assay results published in paper PMC11774580 (Chemosphere, 2024).
Values joined by “and” are separate entries in the source; they are usually repeats but may differ in a detail not shown here. Equal entries are not always repeated.

How the values were obtained:
human OAT4 = molecular target: T1, human OAT4 (Homo sapiens, UniProt Q9NSA0); assay: hOAT4 substrate; format: in vitro ADME; details: for Transporter Uptake Ratio OAT4: 1 μM PFAS, threshold ≥ 2-fold; for Effect of probenecid co-treatment on hOAT4-mediated uptake: probenecid 1 mM
T1 sequence (Q9NSA0 1-550): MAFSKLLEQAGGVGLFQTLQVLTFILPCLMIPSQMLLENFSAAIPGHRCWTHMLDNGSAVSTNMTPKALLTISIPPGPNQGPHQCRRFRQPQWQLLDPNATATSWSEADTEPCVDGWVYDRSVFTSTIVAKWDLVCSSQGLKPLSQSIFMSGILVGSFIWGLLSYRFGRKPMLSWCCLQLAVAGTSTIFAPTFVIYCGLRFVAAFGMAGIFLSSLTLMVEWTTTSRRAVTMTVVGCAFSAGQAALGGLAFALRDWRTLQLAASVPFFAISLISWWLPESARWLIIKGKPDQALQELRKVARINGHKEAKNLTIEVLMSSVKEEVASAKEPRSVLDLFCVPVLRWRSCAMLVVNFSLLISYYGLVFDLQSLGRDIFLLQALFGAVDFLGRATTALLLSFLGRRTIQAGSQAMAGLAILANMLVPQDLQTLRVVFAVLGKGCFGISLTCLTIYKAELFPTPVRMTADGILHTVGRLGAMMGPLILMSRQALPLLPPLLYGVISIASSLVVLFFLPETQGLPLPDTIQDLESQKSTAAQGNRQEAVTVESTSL

[1] = tested on: MDCKII-LE cell monolayers; assay: Apparent permeability; details: donor pH 7.4, receiver pH 7.4; 2 μM PFAS; 90 min; 0.4% BSA in receiver
human OAT1 = molecular target: T2, human OAT1 (Homo sapiens, UniProt Q4U2R8); assay: hOAT1 substrate
T2 sequence (Q4U2R8 1-563): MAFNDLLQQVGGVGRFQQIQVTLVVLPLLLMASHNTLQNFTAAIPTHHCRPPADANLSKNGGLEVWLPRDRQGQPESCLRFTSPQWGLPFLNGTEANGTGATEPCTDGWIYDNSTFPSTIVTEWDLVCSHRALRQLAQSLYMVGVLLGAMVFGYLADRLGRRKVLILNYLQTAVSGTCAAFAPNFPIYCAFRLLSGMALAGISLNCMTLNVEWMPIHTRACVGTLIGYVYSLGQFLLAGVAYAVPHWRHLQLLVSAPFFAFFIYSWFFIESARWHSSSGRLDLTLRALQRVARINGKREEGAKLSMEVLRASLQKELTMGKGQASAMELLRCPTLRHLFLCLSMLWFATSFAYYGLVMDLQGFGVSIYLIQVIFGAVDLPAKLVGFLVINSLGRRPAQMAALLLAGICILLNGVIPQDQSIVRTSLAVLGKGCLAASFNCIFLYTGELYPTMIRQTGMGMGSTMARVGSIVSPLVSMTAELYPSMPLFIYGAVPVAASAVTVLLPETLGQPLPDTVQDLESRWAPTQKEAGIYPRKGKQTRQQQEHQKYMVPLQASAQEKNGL

human OAT3 = molecular target: T3, human OAT3 (Homo sapiens, UniProt Q8TCC7); assay: hOAT3 substrate; details: for hOAT3 uptake ratio, fold higher than mock transfected controls / hOAT3 uptake ratio, % higher than mock transfectants: 1 μM PFAS screen; for Transporter Uptake Ratio OAT3: 1 μM PFAS, threshold ≥ 2-fold; for hOAT3-mediated uptake, fold: follow-up test, without probenecid; for Effect of probenecid cotreatment on hOAT3-mediated uptake: probenecid 1 mM
T3 sequence (Q8TCC7 1-542): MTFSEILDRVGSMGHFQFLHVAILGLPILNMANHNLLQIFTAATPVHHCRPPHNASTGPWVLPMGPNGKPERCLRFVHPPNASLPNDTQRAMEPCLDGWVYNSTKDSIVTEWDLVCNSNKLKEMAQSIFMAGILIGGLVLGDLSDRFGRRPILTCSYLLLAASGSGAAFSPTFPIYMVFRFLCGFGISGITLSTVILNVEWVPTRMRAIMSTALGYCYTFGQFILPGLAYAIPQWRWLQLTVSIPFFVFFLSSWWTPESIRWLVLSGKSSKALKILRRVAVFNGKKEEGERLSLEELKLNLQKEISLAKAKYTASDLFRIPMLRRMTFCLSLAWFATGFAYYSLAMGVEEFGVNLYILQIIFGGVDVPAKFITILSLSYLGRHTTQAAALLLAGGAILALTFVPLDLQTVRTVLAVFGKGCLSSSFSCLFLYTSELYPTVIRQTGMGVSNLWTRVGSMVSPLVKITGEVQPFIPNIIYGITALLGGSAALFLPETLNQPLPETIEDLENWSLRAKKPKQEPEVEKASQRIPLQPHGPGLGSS

Structure (SMILES)	OAT4 substrate classification (human OAT4)	hOAT4 uptake ratio, fold (human OAT4; 1 μM PFAS screen)	Transporter Uptake Ratio OAT4 (human OAT4)	Effect of probenecid co-treatment on hOAT4-mediated uptake (human OAT4)	Ph 7.4 A-B Papp [1]	hOAT1 uptake ratio, % higher than controls (human OAT1; 1 μM PFAS screen)	hOAT3 uptake ratio, fold higher than mock transfected controls (human OAT3)	Transporter Uptake Ratio OAT3 (human OAT3)	hOAT3-mediated uptake, fold (human OAT3)	Effect of probenecid cotreatment on hOAT3-mediated uptake (human OAT3)	hOAT3 substrate classification (human OAT3)	hOAT3 uptake ratio, % higher than mock transfectants (human OAT3)	hOAT4 uptake ratio, % above controls (human OAT4; 1 μM PFAS screen)	hOAT1 uptake ratio, fold higher than the control (human OAT1; 1 μM PFAS screen)	Transporter Uptake Ratio OAT1 (human OAT1; 1 μM PFAS, threshold ≥ 2-fold)	hOAT-mediated uptake (Fig. 3A, OAT1), fold (human OAT1; follow-up test, without probenecid)	Effect of probenecid co-treatment on hOAT1-mediated uptake (human OAT1; probenecid 1 mM)
O=S(=O)(O)C(F)(F)C(F)(F)C(F)(F)C(F)(F)F [PFBS, Perfluorobutane sulfonic acid]	strong substrates	greater than 2 fold	+ (denoted with a “+” to denote a threshold of ≥ 2-fold has been met and considered a substrate for the transporter)	effectively inhibited	1.38 ×10⁻⁶ cm/s	5–60%	2.5–12 fold	+ (denoted with a “+” to denote a threshold of ≥ 2-fold has been met and considered a substrate for the transporter)	2.5–15 fold	markedly inhibited	–	–	–	–	–	–	–
O=C(O)C(F)(F)C(F)(F)C(F)(F)C(F)(F)C(F)(F)C(F)(F)C(F)(F)C(F)(F)C(F)(F)F [PFDA, perfluorodecanoic acid]	–	–	–	–	8.44 ×10⁻⁶ cm/s	–	–	–	–	–	weak substrate	30–50%	–	–	–	–	–
O=C(O)C(F)(F)C(F)(F)C(F)(F)C(F)(F)C(F)(F)F [PFHxA, perfluorohexanoic acid]	strong substrates	–	+ (denoted with a “+” to denote a threshold of ≥ 2-fold has been met and considered a substrate for the transporter)	effectively inhibited	1.16 ×10⁻⁶ cm/s	–	2.5–12 fold	+ (denoted with a “+” to denote a threshold of ≥ 2-fold has been met and considered a substrate for the transporter)	2.5–15 fold	markedly inhibited	–	–	~ 20%	~ 2 fold	+ (denoted with a “+” to denote a threshold of ≥ 2-fold has been met and considered a substrate for the transporter)	~ 2 fold	markedly reduced
O=S(=O)(O)C(F)(F)C(F)(F)C(F)(F)C(F)(F)C(F)(F)C(F)(F)C(F)(F)C(F)(F)F [PFOS, perfluorooctane sulfonic acid]	relatively weak substrate	–	–	–	14 ×10⁻⁶ cm/s and 14.04 ×10⁻⁶ cm/s	–	–	–	–	–	–	30–50%	~ 20%	–	–	–	–
O=C(O)C(F)(F)C(F)(F)C(F)(F)C(F)(F)F [PFPA, perfluoropentanoic acid]	–	–	–	effectively inhibited	0.99 ×10⁻⁶ cm/s	–	2.5–12 fold	+ (denoted with a “+” to denote a threshold of ≥ 2-fold has been met and considered a substrate for the transporter)	2.5–15 fold	markedly inhibited	–	–	–	–	–	–	–
O=C(O)C(F)(F)C(F)(F)C(F)(F)C(F)(F)C(F)(F)C(F)(F)C(F)(F)C(F)(F)C(F)(F)C(F)(F)F [PFUDA, perfluoroundecanoic acid]	–	–	–	–	11.56 ×10⁻⁶ cm/s	–	–	–	–	–	–	–	–	–	–	–	–
